Source: US6133273A, “Pyrazolopyrimidine-2,4-dione sulfonamides” (American Home Products Corporation, priority 1999, dated 2000)

Tests used:
PDE-IV = test: Inhibition of Phosphodiesterase IV (PDE-IV) isolated from human U937 cells; format: biochemical; settings: U937 cell PDE-IV, 1 μM [3H]-cAMP, 37° C., test compound 0.001 μM to 10 μM
Description: This assay was used to biochemically assess the ability of a test compound to inhibit PDE-IV isolated from a U937 cell line, where PDE-IV refers to the cGMP-insensitive, cAMP-selective PDE.
Cell Culture: U937 cells were grown in RPMI 1640 medium supplemented with 10% heat-inactivated fetal calf serum and Penicillin/Streptomycin (100 units/100 μg per mL) in a humidified 5% CO2 atmosphere at 37° C. Starter cells were maintained in continuous logarithmic growth by seeding them in 75 cm^2 vented tissue culture flasks at a concentration of 3×10^4 cells/mL and passing them every 3-4 days when the cells reached approximately 8×10^5 cells/mL. For experiments, 3-4 day starter cells were seeded in 225 cm^2 flasks at 1×10^5 cells/mL and harvested 3-4 days later at approx. 6×10^5 cells/mL.
Isolation of PDE-IV: U937 cells were activated with 10 μM dibutyryl cAMP for a period of 4 hours (to up-regulate PDE-IV) and then harvested by centrifugation at 1200×g for 10 min in 250 mL conical centrifuge tubes. The pellet from each 200 mL flask was resuspended in 5 mL buffer A [10 mM Tris-HCl, 5 mM MgCl2, 4 mM EGTA, 5 mM 2-mercaptoethanol, 1 μM leupeptin, 1 μM pepstatin A, and 5 μM phenylmethyl sulfonyl fluoride (PMSF) (pH 7.8)], and the cells were lysed using 3 cycles of freezing (3 min in dry ice/acetone) followed by thawing (warm water). […] To determine which families of PDEs were present, fractions may be assayed for hydrolytic activity with 1 μM [^3 H]-cAMP or 1 μM [^3 H]-cGMP. Additionally, 1 μM [^3 H]-cAMP assays were conducted in the presence of 10 μM rolipram, 10 μM cGMP, or calmodulin (1 unit/0.4 mL plus 10 μM CaCl2).
When prepared in this manner, approximately 80% of total cAMP PDE activity is eluted by Buffer B containing 0.7 M sodium acetate. This PDE activity consists of>90% PDE-IV (as evidenced by its susceptibility to inhibition by rolipram.
PDE assay: PDE activity was measured using a modification of the radioisotope procedure previously described by Thompson et al. (Thompson, W. J., Terasaki, W. L., Epstein, P. M. and Strada, S. J. Adv, Cyclic Nucleotide Res. 1979, 10, 69). Reaction mixtures (0.4 mL) contain 40 mM Tris-HCl (pH 7.8), 4 mM 2-mercaptoethanol, 5 mM MgCl2, 0.1 μM leupeptin, 0.1 μM pepstatin A, 0.1 μM PMSF, 1 μM [3H]-cAMP or 1 μM [^3 H]-cGMP (~200,000 DPM), and enzyme to initiate the reaction. ^3 H-cAMP substrate was prepared as follows: A stock solution of ^3 H-cyclic nucleotide (1000 μCi/mL) was diluted 1:10 in 50% EtOH. 200 μl of this diluted stock solution was added to a cold (unlabeled) cyclic nucleotide solution, made at a concentration of 4 μM. 100 μl of this solution was used per assay tube to achieve a final concentration of 1 μM cyclic nucleotide per assay tube (200,000 DPM). Enzyme activity was determined at 37° C. Reactions were terminated by boiling, incubating with snake venom, and cooling as previously described (Thompson et al., 1979). The reaction mixture was applied to a (0.8×8.5 cm) column containing 0.4 g Dowex I-X8 affinity resin; reaction tubes were rinsed with 0.5 mL of methanol; and this, along with an extra 1 mL of methanol, was applied to the column to elute the ^3 H-reaction products. After all liquid has passed through the column, the column was plunged with a 12 cc syringe plunger. Each column's eluate was collected in a 20 mL scintillation vial containing 10 mL aquasol-2 and counted by scintillation spectrophotometry. [^3 H]-adenosine or [^3 H]-guanosine recovery was corrected for background DPM determined in the absence of enzyme. The amount of enzyme and duration of assay were adjusted to ensure that less than 25% of the substrate was consumed under these conditions.
Measurements: Inhibition by a test compound was measured as a percent reduction of total PDE activity, and calculated as follows: [formula] where A is the PDE activity (mean DPM-background DPM) in the presence of test compound, and B is the total PDE-IV activity (mean DPM-background DPM) in the absence of test compound. […]

[1] = tested on: C1-3 cell line (calcitonin secretion); test: Calcitonin Secretion/RIA Assay; format: cell-based, human; settings: active if >2.5; for fold induction at 30 µM: Homo sapiens, C13, ratio of calcitonin secretion vs untreated control
Description: Cell Line: C1-3 (Parent Cell Line: TT-medullary thyroid carcinoma),
Reagent A--(Anti-Calcitonin)
Regent C--(Anti-Goat Precipitant)
Regent D--(Zero Standard).
Reagents E-I--(Calcitonin Standards)
Reagents J-K (Calcitonin Controls: Level and Level 2)
1. Glass tubes were labeled to include Total Count (TC), Nonspecific Binding (NSB), Maximum Binding (Bo), Standards, Controls and Patient Sera in duplicate.
2. […] of Standard Zero (Reagent D) was added to tubes 3 through 6 (NSB and Bo).
3. […] of Standards* (Reagents E-1) was added to tubes 7-16 as follows:
4. […] of Patient Serum 1 was added to tubes 21 and 22, Patient Serum 2 was added to tubes 23 and 24, etc.
5. […] of Reagent L (NSB Buffer) was added to tubes 3 and 4.
6. […] of Reagent A (Anti-Calcitonin) was added to all tubes except tubes 1 & 2 (TC) and tube 3 & 4 (NSB). All tubes were vortexed, covered with parafilm or foil and incubated 44±6 hours at 2-8° C.
7. […] All tubes were vortexed, covered with parafilm or foil and incubated 22±3 hours at 2-8° C.
8. Reagent C (Anti-Goat Precipitant) was mixed gently but thoroughly by inverting the vial several times before use. 1 mL Reagent C was added to all tubes except 1 and 2 (TC). Tubes were vortexed and incubated 20 minutes at room temperature.
9. All tubes were centrifuged at 1300-1500×g for 15 minutes at 2-8° C.
10. Supernatant was decanted immediately after centrifugation taking care to leave the precipitate intact.
11. Tubes were counted 4 minutes or longer.
Secretion Ratio: Stimulation of calcitonin secretion is expressed as a ratio of secretion activity in the presence of test compound compared to the secretion activity in the untreated control: [formula]

[2] = tested on: promoter region of the human calcitonin gene (luciferase reporter, C1-3 cells); test: Calcitonin/Luciferase Reporter Gene Expression Assay; settings: for fold induction at 30 µM: read-out: TAR (transcription activation ratio)
Description: This assay was used to determine the ability of a compound to stimulate transcription of a luciferase reporter gene regulated by 3 kb of the promoter region of the human calcitonin gene.
C1-3 cells were plated at a density of 6,500-7,500 cells per well in a 96-plate microtiter plate. Twenty-four to forty-eight hours later, compounds were added to the wells in triplicate. Compounds were tested at a concentration of 10 μg/mL in 0.5% DMSO.
The production of light is measured on a luminometer.
TAR Ratio: Stimulation of calcitonin promoter-dependent transcription is expressed as a ratio of luciferase activity (LUCI) in the presence of test compound compared to the LUCI activity in the untreated control: [formula]

Molecule | % Inhibition of PDE IV (normalized to rolipram) (PDE-IV) [%] | fold induction at 30 µM [1] | fold induction at 30 µM ([2]; Homo sapiens, C13, 12 h) | fold induction at 1000 µM ([2]; Homo sapiens, C13, 12 h, read-out: fold induction of luciferase (control stimulation)) | Secretion Ratio ([1]; 30 μM, ratio of calcitonin secretion vs untreated control) | TAR (transcription activation ratio) ([2]; 30 μM, ratio of luciferase activity vs untreated control, active if TAR>1.5)
CCCCn1c(=O)c2nn(S(=O)(=O)CCCCl)cc2n(CCC(C)C)c1=O [Example 20, 6-Butyl-2-(3-chloro-propane-1-sulfonyl)-4-(3-methyl-butyl)-2,4-dihydro-pyrazolo[4,3-d]pyrimidine-5,7-dione] | 42 | 2.25 | 1.57 | – | – | –
CCCCn1c(=O)c2nn(S(=O)(=O)CCCCl)cc2n(CCCC)c1=O [Example 1, 4,6-Dibutyl-3-chloropropanesulfonyl-2,4-dihydro-pyrazolo[4,3-d]pyrimidine-5,7-dione] | – | 4.35 | 1.34 | – | – | –
CCCCn1c(=O)c2cn(S(=O)(=O)CCCCl)nc2n(CCCC)c1=O [Example 13, 5,7-Dibutyl-2-(3-chloro-propane-1-sulfonyl)-2,7-dihydro-pyrazolo[3,4-d]pyrimidine-4,6-dione] | 34 | 2.71 | 1.91 | – | – | –
CCCCn1c(=O)c2cn(S(C)(=O)=O)nc2n(CCCC)c1=O [Example 17, 5,7-Dibutyl-2-methanesulfonyl-2,7-dihydro-pyrazolo[3,4-d]pyrimidine-4,6-dione] | 17 | 3.93 | 1.95 | – | – | –
CCCCn1c(=O)c2cn(S(=O)(=O)c3cc(Cl)c(Cl)s3)nc2n(CCCC)c1=O [Example 15, 5,7-Dibutyl-2-(4,5-dichloro-thiophene-2-sulfonyl)-2,7-dihydro-pyrazolo[3,4-d]pyrimidine-4,6-dione] | 59 | 3.67 | 2.93 | – | – | –
Cn1c(=O)c2cn(S(=O)(=O)CCCCl)nc2n(C)c1=O [Example 21, 2-(3-Chloro-propane-1-sulfonyl)-5,7-dimethyl-2,7-dihydro-pyrazolo[3,4-d]pyrimidine-4,6-dione] | 68 | 1.02 | 1.2 | – | – | –
Nc1ncnc2c1nc(Sc1ccc(Cl)cc1)n2[C@@H]1O[C@@H]2COP(=O)(O)O[C@H]2[C@H]1O [Example 8-CPT-cAMP, 8-CPT-cAMP, reference compound] | – | – | – | 2 to 3 | – | –
CCCCn1c(=O)c2cn(S(=O)(=O)c3ccc(C(F)(F)F)cc3)nc2n(CCCC)c1=O [Example 16, 5,7-Dibutyl-2-(4-trifluoromethyl-benzenesulfonyl)-2,7-dihydro-pyrazolo[3,4-d]pyrimidine-4,6-dione] | 62 | 3.86 | 2.61 | – | – | –
CCCCn1c(=O)n(C)c(=O)c2nn(S(=O)(=O)CCCCl)cc21 [Example 18, 4-Butyl-2-(3-chloro-propane-1-sulfonyl)-6-methyl-2,4-dihydro-pyrazolo[4,3-d]pyrimidine-5,7-dione] | 34 | 1.38 | 1.1 | – | – | –
CCCCn1c(=O)c2nn(S(=O)(=O)c3cccc(C(F)(F)F)c3)cc2n(CCCC)c1=O [Example 3, 4,6-Dibutyl-2-(3-trifluoromethyl-benzenesulfonyl)-2,4-dihydro-pyrazolo[4,3-d]pyrimidine-5,7-dione] | 68 | 3.79 | 1.79 | – | – | –
4,6-Dibutyl-1-(propane-1-sulfonyl)-1,4-dihydro-pyrazolo[4,3-d]pyrimidine-5,7-dione [Example 9] | 27 | – | – | – | 2.71 | 1.47
CCCCn1c(=O)c2nn(S(=O)(=O)c3c(Cl)cc(Cl)cc3Cl)cc2n(CCCC)c1=O [Example 11, 4,6-Dibutyl-2-(2,4,6-trichloro-benzenesulfonyl)-2,4-dihydro-pyrazolo[4,3-d]pyrimidine-5,7-dione] | 26 | 4.31 | 1.76 | – | – | –
CCCCn1c(=O)c2nn(S(=O)(=O)Cc3ccccc3)cc2n(CCCC)c1=O [Example 2, 4,6-Dibutyl-2-phenylmethanesulfonyl-2,4-dihydro-pyrazolo[4,3-d]pyrimidine-5,7-dione] | 35 | 2.55 | 1.51 | – | – | –
O=c1c2cn(S(=O)(=O)CCCCl)nc2n(CC2CC2)c(=O)n1CC1CC1 [Example 22, 2-(3-Chloro-propane-1-sulfonyl)-5,7-bis-cyclopropylmethyl-2,7-dihydro-pyrazolo[3,4-d]pyrimidine-4,6-dione] | 30 | 2.93 | 1.6 | – | – | –
CCCCn1c(=O)c2cn(S(=O)(=O)c3ccc(OC(F)(F)F)cc3)nc2n(CCCC)c1=O [Example 14, 5,7-Dibutyl-2-(4-trifluoromethoxy-benzenesulfonyl)-2,7-dihydro-pyrazolo[3,4-d]pyrimidine-4,6-dione] | 92 | 4.29 | 2.22 | – | – | –
CCCCn1c(=O)c2nn(S(=O)(=O)c3cccc4cccnc34)cc2n(CCCC)c1=O [Example 12, 4,6-Dibutyl-2-(quinoline-8-sulfonyl)-2,4-dihydro-pyrazolo[4,3-d]pyrimidine-5,7-dione] | 41 | 3.83 | 2.22 | – | – | –
CCCCn1c(=O)c2cn(S(=O)(=O)Cc3ccccc3)nc2n(CCCC)c1=O [Example 19, 5,7-Dibutyl-2-phenylmethanesulfonyl-1,7-dihydro-pyrazolo[3,4-d]pyrimidine-4,6-dione] | 48 | 3.43 | 1.97 | – | – | –
